Test results: patent US7223777B2, “Compounds for the management of aging-related and diabetic vascular complications, process for their preparation, therapeutic and cosmetic uses thereof” (Torrent Pharmaceuticals Ltd., priority 2001, dated 2007)
Each block holds one compound with its values, some of them ahead of it.

Legend:
[1] = molecular target: T1, AGE-BSA (Bos taurus, UniProt P02769); experiment: In-vitro screening for AGE-breaking activity (AGE-BSA incubated with compound; ELISA / gel permeation chromatography); assay type: biochemical, bovine; conditions: 37° C., 24 hours
T1 construct: Bovine serum albumin (fraction V) (BSA); from tissue; host or cells: bovine serum (fraction V); own knowledge: fraction V is the albumin fraction of plasma/serum
Protocol: Fluorescence was used as the criteria to monitor the increased AGE formation.
160 mg/ml of protein, bovine serum albumin, BSA and 1.6M glucose sugar were dissolved in phosphate buffered saline, PBS. Sodium azide was added at 0.02% concentration as a preservative. The solution was filtered asceptically through a […] filter and kept for aging at 37° C. for 16 weeks. After 16 weeks the solution was dialyzed against PBS, aliquoted and stored at −20° C.
To determine the AGE breaking activity, 10 μg/ml of the 16 weeks AGE-BSA was incubated with different concentrations of the test compounds at 37° C. for 24 hours and AGE breaking activity of the test compounds by ELISA was determined.
• 1. Different concentrations of 16 weeks AGE-BSA were coated on a microtiter plate as standard. Each concentration is coated in triplicates. • 2. The test samples were coated on microtiter plate at a concentration of 5 ng. to 20 ng per well in triplicates. • 3. The plate was incubated at 37° C. for one hour. • 4. After incubation the plate was washed with PBST (PBS with 0.05% Tween 20). • 5. Blocking with 5% skimmed milk in PBS at 37° C. for one hour was done. • 6. The plate was washed with PBST. • 7. Primary antibody against AGE-BSA was added and the plate is incubated at 37° C. for one hour. • 8. The plate was washed with PBST. • 9. Secondary antibody anti rabbit HRPO (Horse-Radish Per Oxidase) conjugate was added and the plate is incubated at 37° C. for one hour. • 10. The plate was washed with PBST. • 11. Colour development with OPD (orthophenylenediamine dihydrochloride) and hydrogen peroxide was done. • 12. OD (optical density) at (450 nm reading –620 nm reading) was measured after incubation at 37° C. for 15 minutes with Microplate ELISA Reader.
The breaker activity of the compounds were determined by the following formula:
[formula] OD450-620Control=Absorbance of 20 ng AGE-BSA after incubation at 37° C. for 24 hours without test compound. OD450-620Test=Absorbance of 20 ng AGE-BSA after incubation at 37° C. for 24 hours with required concentration of test compound.
Gel Permeation Chromatography based method was used to determine AGE breaking activities of the compounds.
Separation by Gel Permeation Chromatography (GPC) depends on differences in the size, more precisely the hydrodynamic volume, of the proteins in a sample. […] The pores of a column particle are differentially accessible to smaller particles, depending on their size. This volume of the column is called (V1). The total accessible volume (Vt) is the sum of the volume outside the particles (V0) and the volume accessible inside the particles (V1): Vt=V0+Vi Therefore, in a typical Gel Permeation Chromatography (GPC) run, high molecular weight molecules elute at a lower retention time whereas lower molecular weight molecules are retained for longer time. For the purpose of quantification, the area under the curve for the respective molecule is recorded. The same principle has been applied in the in vitro screening of the molecules of instant invention. Highly cross-linked Advanced Glycosylated Endproducts (AGE) were prepared in vitro by incubating Bovine Serum Albumin (BSA) with glucose for a period of 16 weeks. […] The reduction in the area of AGE-BSA incubated in the presence of AGE breaker as compared to that of control AGE BSA (incubated in absence of AGE breaker) gives an estimate of the AGE breaker activity of the drug. In order to check the non-specific activity of the molecule, a similar experiment was repeated with BSA as well. Methodology:
A known concentration of 16-week AGE-BSA was incubated with and without a predetermined concentration of the drug at 37° C. for 24 hours in clean transparent glass test tubes. The solution without drug served as the control and the solution containing the drug was treated as the test sample.
Gel permeation chromatography was performed on equal volumes of control AGE-BSA preparation and solution of AGE-BSA treated with drug. […]

[2] = Free radical scavenging activity on ABTS radical cation; assay type: biochemical
Protocol: This method measures the relative ability of free radical scavenging substances to scavenge the ABTS.^+ i.e. 2,2-Azino-bis-(3-ethyl benzo thiazoline-6-sulfonate) radical cation as compared to a standard amount of standard or free radical scavengers antioxidants. Incubation of ABTS with Peroxidase (metmyoglobin) and hydrogen peroxide results in the production of radical cation ABTS.^+. This species is blue-green in colour and can be detected at 730 nm. Antioxidants or free radical scavengers in the added sample that causes suppression of the color to a degree that is proportional to their concentration.
Preparation of Buffer Solutions: • a. Phosphate Citrate Buffer (pH 5.0): 48.5 ml of 0.1M citric acid with sufficient 0.2M disodium hydrogen phosphate to produce 100 ml. • b. Phosphate Buffer Saline (PBS): Dissolve 40.0 g of NaCl, 1.0 g of KCl, 1.0 g of KH2PO4 and 3.05 g of Na2HPO4 in 1 liter milli-Q water. Dilute 200 ml of above solution to 1 liter with milli-Q water (pH 7.4–7.6).
Preparation of ABTS Stock Solution (2 mM): • 1 tablet (10 mg) was dissolved in phosphate citrate buffer (pH 5.0) to give a 2 mM solution.
Preparation of Horse Radish Peroxidase Working Solution: • 0.1 mg was dissolved in 10 ml of phosphate buffer saline, 1 ml of this solution was diluted to 100 ml with PBS.
Preparation of Hydrogen Peroxide (1.08 mM) Solution: • 12 μl of Hydrogen Peroxide (30% w/v) was diluted to 100 ml with PBS.
Preparation of Drug Solutions: • 0.1 mM of stock solution of the drug was prepared which was serially diluted in PBS to get 0.05 mM, 0.025 mM and 0.0125 mM solutions.
Preparation of ABTS Radical Stock Solution: • To 2 ml of ABTS stock solution, 1 ml of horseradish Peroxidase working solution was added. • As soon as 2 ml of Hydrogen peroxide solution was added to the above solution, blue-green colour of the ABTS radicals appeared. This solution was incubated at 30° C. for 30 min in order to ensure the completion reaction. Make up the volume to 10 ml with PBS.
Preparation of Control Solution: • 900 μl of ABTS radical stock solution were added to an eppendorf tube. To it were added 100 μl of PBS solution.
Preparation of Test Solution: • 900 μl of ABTS radical stock solutions were added to different eppendorf tubes. To it were added 100 μl of various concentrations of drug solution.
Measurement of Absorbance (O.D): • The absorbance of control and test samples was recorded immediately at 730 nm taking PBS as blank.
Calculation: • The percent antioxidant activity was calculated according to the formula: % Antioxidant activity=100−[O.D of test sample/O.D of control×100]

T1 sequence (P02769 25-607): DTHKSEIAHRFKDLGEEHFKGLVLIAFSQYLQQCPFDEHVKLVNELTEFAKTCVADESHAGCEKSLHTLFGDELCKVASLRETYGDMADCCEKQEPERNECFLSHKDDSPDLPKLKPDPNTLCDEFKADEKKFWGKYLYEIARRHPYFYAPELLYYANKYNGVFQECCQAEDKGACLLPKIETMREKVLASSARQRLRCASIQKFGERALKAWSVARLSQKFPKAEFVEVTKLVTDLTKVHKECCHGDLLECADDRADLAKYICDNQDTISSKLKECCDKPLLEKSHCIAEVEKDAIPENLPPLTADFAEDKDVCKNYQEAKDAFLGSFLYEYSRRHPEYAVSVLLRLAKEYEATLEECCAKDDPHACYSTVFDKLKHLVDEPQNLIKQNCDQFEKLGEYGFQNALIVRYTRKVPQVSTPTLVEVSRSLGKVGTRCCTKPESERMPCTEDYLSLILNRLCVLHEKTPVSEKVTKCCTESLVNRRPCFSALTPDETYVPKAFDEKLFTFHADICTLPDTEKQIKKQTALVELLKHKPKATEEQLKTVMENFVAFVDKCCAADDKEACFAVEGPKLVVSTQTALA

% Breakage ([1]; 10 mM compound): 53.29%
Compound: 1-(2-Cyclopropylamino-2-oxoethyl)-3-[(1-cyclohexyl-3-phenylmethyl)pyrazol-5-yl]pyridinium chloride [Compound 23]

% Breakage ([1]; 10 mM compound): 93.43%
Compound: 1-(2-Cyclopropylamino-2-oxoethyl)-3-[(3-(2-cyclohexylethyl)pyrazol-5-yl]pyridinium chloride [Compound 21]

Compound: 1-(2-Thien-2′-yl-2-oxoethyl)-3-[(1-cyclohexyl-3-phenoxymethyl)pyrazol-5-yl]pyridinium chloride [Compound 38]
Relative Free Radical Scavenging Activity (%) on ABTS ([2]; 12.5 μM): 27.70%
Relative Free Radical Scavenging Activity (%) on ABTS ([2]; 25.0 μM): 44.78%
Relative Free Radical Scavenging Activity (%) on ABTS ([2]; 50.0 μM): 61.98%
Relative Free Radical Scavenging Activity (%) on ABTS ([2]; 100.0 μM): 66.92%

Compound: Cc1cc(C)n(Cc2cc(-c3ccc[n+](CC(=O)NC4CC4)c3)[nH]n2)n1.[Br-] [Compound 7, 1-[2-(Cyclopropylamino)-2-oxoethyl]3-[3-{(3,5-dimethylpyrazol-1-yl)methyl}-pyrazol-5-yl]-pyridinium bromide]
% Breakage ([1]; 1.0 mM compound): 51.72%

Compound: Cc1cc(C)n(Cc2cc(-c3ccc[n+](CC(=O)c4cc([N+](=O)[O-])cs4)c3)[nH]n2)n1.[Br-] [Compound 8, 1-{2-(4-Nitro-2-thienyl)-2-oxoethyl}-3-[3{(3,5-dimethylpyrazol-1-yl)methyl}-pyrazol-5-yl]-pyridinium bromide]
% Breakage ([1]; 5 mM compound): 85.31%
Relative Free Radical Scavenging Activity (%) on ABTS ([2]; 12.5 μM): 22.22%
Relative Free Radical Scavenging Activity (%) on ABTS ([2]; 25.0 μM): 38.18%
Relative Free Radical Scavenging Activity (%) on ABTS ([2]; 50.0 μM): 67.14%
Relative Free Radical Scavenging Activity (%) on ABTS ([2]; 100.0 μM): 99.71%

% Breakage ([1]; 10 mM compound): 89.23%
Compound: Cc1ccc(C(=O)C[n+]2cccc(-c3cc(Cc4ccccc4)n[nH]3)c2)s1.[Cl-] [Compound 12, 1-(2-(5-Methyl-2-Thienyl)-2-oxoethyl)-3-[(3-phenylmethyl)pyrazol-5-yl]pyridinium chloride]
Relative Free Radical Scavenging Activity (%) on ABTS ([2]; 12.5 μM): 22.34%
Relative Free Radical Scavenging Activity (%) on ABTS ([2]; 25.0 μM): 40.97%
Relative Free Radical Scavenging Activity (%) on ABTS ([2]; 50.0 μM): 71.47%
Relative Free Radical Scavenging Activity (%) on ABTS ([2]; 100.0 μM): 84.62%

Compound: O=C(C[n+]1cccc(-c2cc(Cc3ccccc3)n[nH]2)c1)c1ccccc1.[Br-] [Compound 14, 1-(2-Phenyl-2-oxoethyl)-3-[(3-phenylmethyl)pyrazol-5-yl]-pyridinium bromide]
% Breakage ([1]; 10 mM compound): 58.14%

% Breakage ([1]; 10 mM compound): 80.03%
Compound: O=C(C[n+]1cccc(-c2cc(Cc3ccccc3)nn2-c2ccccc2)c1)NC1CC1.[Cl-] [Compound 15, 1-(2-Cyclopropylamino-2-oxoethyl) 3-[(1-phenyl-3-phenylmethyl)pyrazol-5-yl]-pyridinium chloride]

Compound: O=C(C[n+]1cccc(-c2cc(COc3ccccc3)n[nH]2)c1)N1CCC(Cc2ccccc2)CC1.[Br-] [Compound 16, 1-(2-(4-Benzyl-1-piperidinyl)-2-oxoethyl) 3-[(3-phenoxymethyl)pyrazol-5-yl]-pyridinium bromide]
% Breakage ([1]; 10 mM compound): 95.51%

Compound: Cc1ccc(C(=O)C[n+]2cccc(-c3cc(CCC4CCCCC4)n[nH]3)c2)s1.[Cl-] [Compound 20]
Relative Free Radical Scavenging Activity (%) on ABTS ([2]; 12.5 μM): 6.15%
Relative Free Radical Scavenging Activity (%) on ABTS ([2]; 25.0 μM): 9.06%
Relative Free Radical Scavenging Activity (%) on ABTS ([2]; 50.0 μM): 34.31%
Relative Free Radical Scavenging Activity (%) on ABTS ([2]; 100.0 μM): 57.75%

Compound: O=C(C[n+]1cccc(-c2cc(Cc3ccccc3)n[nH]2)c1)NC12CC3CC(CC(C3)C1)C2.[Cl-] [Compound 25, 1-{2-(1-Adamantylamino-2-oxoethyl)}-3-[(3-phenylmethyl)pyrazol-5-yl]pyridinium chloride]
% Breakage ([1]; 5 mM compound): 98.59%

Compound: Cc1cc(C)n(Cc2cc(-c3ccc[n+](CC(=O)c4cc([N+](=O)[O-])cs4)c3)n(C3CCCCC3)n2)n1.[Br-] [Compound 27, 1-(2-(4-nitro-2-thienyl)-2-oxoethyl)-3-[(1-cyclohexyl-3-(3,5-dimethylpyrazol-1-yl)-methyl)pyrazol-5-yl]pyridinium bromide]
% Breakage ([1]; 10 mM compound): 86.98%
Relative Free Radical Scavenging Activity (%) on ABTS ([2]; 12.5 μM): 16.16%
Relative Free Radical Scavenging Activity (%) on ABTS ([2]; 25.0 μM): 27.12%
Relative Free Radical Scavenging Activity (%) on ABTS ([2]; 50.0 μM): 39.05%
Relative Free Radical Scavenging Activity (%) on ABTS ([2]; 100.0 μM): 51.04%

% Breakage ([1]; 10 mM compound): 45.72%
Compound: O=C(C[n+]1cccc(-c2cc(COc3ccccc3)n[nH]2)c1)NC1CC1.[Cl-] [Compound 31, 1-(2-Cyclopropylamino-2-oxoethyl)-3-[(3-phenoxymethyl)pyrazol-5-yl]pyridinium chloride]

Compound: O=C(C[n+]1cccc(-c2cc(CCC3CCCCC3)nn2-c2ccccc2)c1)c1cccs1.[Br-] [Compound 37, 1-(2-Thien-2′-yl-2-oxoethyl)-3-[1-phenyl-3-(2-cyclohexylethyl)pyrazol-5-yl]pyridinium bromide]
% Breakage ([1]; 10 mM compound): 85.45%
Relative Free Radical Scavenging Activity (%) on ABTS ([2]; 12.5 μM): 21.79%
Relative Free Radical Scavenging Activity (%) on ABTS ([2]; 25.0 μM): 37.92%
Relative Free Radical Scavenging Activity (%) on ABTS ([2]; 50.0 μM): 41.95%
Relative Free Radical Scavenging Activity (%) on ABTS ([2]; 100.0 μM): 39.46%

Compound: Cl.c1ccc(OCc2cc(-c3cccnc3)[nH]n2)cc1 [Compound 40, 3-[(3-Phenoxymethyl)pyrazol-5-yl]pyridine hydrochloride]
% Breakage ([1]; 10 mM compound): 66.06%
